In ChEMBL document CHEMBL1201862, “PubChem BioAssay data set” (2004):
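48-hour exposure; five concentrations; linearly interpolated endpoints. GI50: concentration for 50% inhibition of growth.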 Calls of active or inactive are those of the source. No stated cut-off is given here; in the data, active = GI50 up to about 1.1 µM and inactive = higher.

Columns and labels:
Test in all cases: NCI anticancer screen, dose series, 48 h
OVCAR-5 = test system: OVCAR-5
SN12C = test system: SN12C
RPMI-8226 = test system: RPMI-8226
NCI-H460 = test system: NCI-H460
COLO 205 = test system: COLO 205
DU-145 = test system: DU-145
MDA-MB-231 = test system: MDA-MB-231
HT-29 = test system: HT-29
NCI-H23 = test system: NCI-H23
MDA-MB-435 = test system: MDA-MB-435
PC-3 = test system: PC-3
SNB-75 = test system: SNB-75
SF-268 = test system: SF-268
MOLT-4 = test system: MOLT-4
SW-620 = test system: SW-620
Malme-3M = test system: Malme-3M
LOX IMVI = test system: LOX IMVI
K562 = test system: K562
RXF 393 = test system: RXF 393
TK-10 = test system: TK-10

| SMILES | GI50 (OVCAR-5) | GI50 (SN12C) | GI50 (RPMI-8226) | GI50 (NCI-H460) | GI50 (COLO 205) | GI50 (DU-145) | GI50 (MDA-MB-231) | GI50 (HT-29) | GI50 (NCI-H23) | GI50 (MDA-MB-435) | GI50 (PC-3) | GI50 (SNB-75) | GI50 (SF-268) | GI50 (MOLT-4) | GI50 (SW-620) | GI50 (Malme-3M) | GI50 (LOX IMVI) | GI50 (K562) | GI50 (RXF 393) | GI50 (TK-10) |
| --- | --- | --- | --- | --- | --- | --- | --- | --- | --- | --- | --- | --- | --- | --- | --- | --- | --- | --- | --- | --- |
| Cn1c(SCc2ccc(F)cc2)nnc1C12CC3CC(CC(C3)C1)C2 | 63.2 µM (inactive) | 43.2 µM (inactive) | 20.1 µM (inactive) | 40 µM (inactive) | 17 µM (inactive) | 52 µM (inactive) | 20.1 µM (inactive) | 16.1 µM (inactive) | 50.6 µM (inactive) | 22.5 µM (inactive) | 28.8 µM (inactive) | 37.8 µM (inactive) | 40.4 µM (inactive) | 13.6 µM (inactive) | 58.7 µM (inactive) | 19.5 µM (inactive) | 22.2 µM (inactive) | 24.2 µM (inactive) | 27.8 µM (inactive) |  |
| CC1CCCN(CC(O)CN2CCCc3ccccc32)C1 (configuration not stated) | > 100 µM (inactive) | > 100 µM (inactive) | > 100 µM (inactive) |  | > 100 µM (inactive) | > 100 µM (inactive) | > 100 µM (inactive) | 41.6 µM (inactive) | > 100 µM (inactive) | > 100 µM (inactive) | > 100 µM (inactive) | > 100 µM (inactive) | > 100 µM (inactive) | > 100 µM (inactive) | > 100 µM (inactive) | > 100 µM (inactive) | > 100 µM (inactive) | > 100 µM (inactive) | > 100 µM (inactive) | > 100 µM (inactive) |
| COc1cc2cc(C(=O)N3CC(CCl)c4ccc([N+](C)(C)Cc5ccccc5[N+](=O)[O-])cc43)[nH]c2c(OC)c1OC (configuration not stated) | 2.66 µM (inactive) | 4.05 µM (inactive) | 1.3 µM (inactive) |  | 2 µM (inactive) | 1.53 µM (inactive) | 3.94 µM (inactive) | 0.962 µM (active) | 0.762 µM (active) | 1.82 µM (inactive) | 1.68 µM (inactive) | 4.09 µM (inactive) | 1.71 µM (inactive) | 0.63 µM (active) | 2.01 µM (inactive) | 1.73 µM (inactive) | 2.31 µM (inactive) | 1.71 µM (inactive) | 0.652 µM (active) | 2.74 µM (inactive) |
| NNc1nnc(-c2nnc(NN)o2)o1 | > 10 µM (inactive) | > 10 µM (inactive) | > 10 µM (inactive) | > 10 µM (inactive) | > 10 µM (inactive) | > 10 µM (inactive) | > 10 µM (inactive) | > 10 µM (inactive) | > 10 µM (inactive) | > 10 µM (inactive) | > 10 µM (inactive) |  | > 10 µM (inactive) | > 10 µM (inactive) | > 10 µM (inactive) | > 10 µM (inactive) |  | > 10 µM (inactive) | > 10 µM (inactive) | > 10 µM (inactive) |
| CN(C)CCCNc1ncnc2[nH]cnc12 | > 100 µM (inactive) | > 100 µM (inactive) | > 100 µM (inactive) | > 100 µM (inactive) | > 100 µM (inactive) | > 100 µM (inactive) | > 100 µM (inactive) | > 100 µM (inactive) | > 100 µM (inactive) | > 100 µM (inactive) | > 100 µM (inactive) |  | > 100 µM (inactive) | > 100 µM (inactive) | > 100 µM (inactive) | > 100 µM (inactive) | > 100 µM (inactive) | > 100 µM (inactive) | > 100 µM (inactive) | > 100 µM (inactive) |
| Cn1c(=O)c2c(nc(NCCCCl)n2CC(=O)NCCCCl)n(C)c1=O | > 100 µM (inactive) | > 100 µM (inactive) | > 100 µM (inactive) | > 100 µM (inactive) | > 100 µM (inactive) | > 100 µM (inactive) | > 100 µM (inactive) | > 100 µM (inactive) | > 100 µM (inactive) | > 100 µM (inactive) | > 100 µM (inactive) | > 100 µM (inactive) | > 100 µM (inactive) | > 100 µM (inactive) | > 100 µM (inactive) |  | > 100 µM (inactive) | > 100 µM (inactive) | > 100 µM (inactive) | > 100 µM (inactive) |
| O=C(Nc1nccs1)NS(=O)(=O)n1cnc2ccccc21 | > 100 µM (inactive) | > 100 µM (inactive) | > 100 µM (inactive) | > 100 µM (inactive) | > 100 µM (inactive) | > 100 µM (inactive) | > 100 µM (inactive) | > 100 µM (inactive) | > 100 µM (inactive) | > 100 µM (inactive) | > 100 µM (inactive) | > 100 µM (inactive) | > 100 µM (inactive) | > 100 µM (inactive) | > 100 µM (inactive) | > 100 µM (inactive) |  |  | > 100 µM (inactive) | > 100 µM (inactive) |
| CC1OC(OC2C(OC(=O)[C@]34CCC(C)(C)C[C@H]3C3=CC[C@@H]5[C@@]6(C)CC[C@H](OC7OC(C(=O)O)C(O)C(O)C7O)C(C)(C)[C@@H]6CC[C@@]5(C)[C@]3(C)C[C@H]4O)OCC(O)C2O)C(O)C(O)C1OC1OCC(OC2OCC(O)C(O)C2O)C(O)C1O (some centres not stated) | 6.75 µM (inactive) | 2.42 µM (inactive) | 10.7 µM (inactive) | 16.4 µM (inactive) | 1.89 µM (inactive) | 11.3 µM (inactive) | 3.45 µM (inactive) | 3.4 µM (inactive) | 2.14 µM (inactive) | 4.59 µM (inactive) | 6.46 µM (inactive) | 13.2 µM (inactive) | 12.6 µM (inactive) | 14.8 µM (inactive) | 10.9 µM (inactive) | 11.4 µM (inactive) | 11.9 µM (inactive) | 11.4 µM (inactive) | 14.3 µM (inactive) |  |
| O=C(O)c1ccccc1C1c2ccccc2Oc2ccccc21 | > 100 µM (inactive) | 46 µM (inactive) | 54.6 µM (inactive) | 39.9 µM (inactive) |  | 46.7 µM (inactive) | > 100 µM (inactive) | 74.6 µM (inactive) | 39.7 µM (inactive) | 52.4 µM (inactive) | 65.9 µM (inactive) | 22.6 µM (inactive) | 28.8 µM (inactive) | 38.9 µM (inactive) | > 100 µM (inactive) | 26.7 µM (inactive) | 98.4 µM (inactive) | 75.2 µM (inactive) | 69.5 µM (inactive) | > 100 µM (inactive) |
| CN1CCN(CCCNN)CC1 | > 100 µM (inactive) | > 100 µM (inactive) | 86.7 µM (inactive) | > 100 µM (inactive) | > 100 µM (inactive) | > 100 µM (inactive) | > 100 µM (inactive) | > 100 µM (inactive) | > 100 µM (inactive) | > 100 µM (inactive) | > 100 µM (inactive) | > 100 µM (inactive) | > 100 µM (inactive) | 0.305 µM (active) | > 100 µM (inactive) |  | > 100 µM (inactive) | 1.87 µM (inactive) | > 100 µM (inactive) | > 100 µM (inactive) |
| Cn1c(-c2cccs2)cc(-c2ccccc2)c1-c1cccs1 | 88.5 µM (inactive) | > 100 µM (inactive) | > 100 µM (inactive) | > 100 µM (inactive) | 19.1 µM (inactive) | > 100 µM (inactive) | > 100 µM (inactive) | 63 µM (inactive) | 4.75 µM (inactive) | > 100 µM (inactive) | 58.5 µM (inactive) | > 100 µM (inactive) | > 100 µM (inactive) | 66.2 µM (inactive) | > 100 µM (inactive) |  | > 100 µM (inactive) | > 100 µM (inactive) | > 100 µM (inactive) | > 100 µM (inactive) |
